Test system: primary rat mixed cortical cells
Test: In vitro myelination assay (MBP positive myelin strands, fold myelin pixels above background)
Format: cell-based
Details: Rattus norvegicus, relative to baseline of no added compound, read-out: Fold myelin pixels above background; for fold induction at 1 µM: 1.0 μM compound; for fold induction at 10 µM: 10.0 μM compound
How it was run: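 P1 rat cortical cells (neurons, OPCs, oligodendrocytes, astrocytes, microglia) were cultured 14 days at 37 °C with compound, with half-medium changes containing 1× compound on days 6 and 10. Fixed cells were immunostained for MBP and imaged at 10×. Total MBP myelin pixels per well were expressed as fold above no-compound baseline at 1.0 μM and 10.0 μM.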

| SMILES | fold induction at 1 µM | fold induction at 10 µM |
| --- | --- | --- |
| N#Cc1cc(Nc2ncn(-c3ccccc3)n2)cc(N2CCOCC2)c1 [Compound 608, 3-morpholino-5-[(1-phenyl-1,2,4-triazol-3-yl)amino]benzonitrile] | 10 to 100 | 1 to 10 |
| Cc1cc(Nc2ncn(-c3ccccn3)n2)cc(N2CCCN(C3COC3)CC2)c1 [Compound 609, N-[3-methyl-5-[4-(oxetan-3-yl)-1,4-diazepan-1-yl]phenyl]-1-(2-pyridyl)-1,2,4-triazol-3-amine] | 100 to 1000 | 100 to 1000 |
| COc1cc(Nc2ncn(-c3cccc(C(F)(F)F)c3)n2)nc(N2CCN(C3COC3)CC2)c1 [Compound 610, 4-methoxy-6-[4-(oxetan-3-yl)piperazin-1-yl]-N-[1-[3-(trifluoromethyl)phenyl]-1,2,4-triazol-3-yl]pyridin-2-amine] | 1 to 10 | 1 to 10 |
| Fc1cc(F)cc(-n2cnc(Nc3cc(N4CC(N5CCOCC5)C4)cc(F)n3)n2)c1 [Compound 612, N-[1-(3,5-difluorophenyl)-1,2,4-triazol-3-yl]-6-fluoro-4-(3-morpholinoazetidin-1-yl)pyridin-2-amine] | ≤ 1 | 10 to 100 |
| Cc1cc(Nc2ncn(-c3cc(F)cc(F)c3)n2)cc(C2(C)CN(C)C(=O)O2)c1 (stereo not drawn) [Compound 613, 5-[3-[[1-(3,5-difluorophenyl)-1,2,4-triazol-3-yl]amino]-5-methyl-phenyl]-3,5-dimethyl-oxazolidin-2-one] | 10 to 100 | 1 to 10 |
| Cc1cc(Nc2ncn(-c3cc(F)cc(F)c3)n2)nc(NC2CCOC2)c1 (stereo not drawn) [Compound 614, N6-[1-(3,5-difluorophenyl)-1,2,4-triazol-3-yl]-4-methyl-N2-tetrahydrofuran-3-yl-pyridine-2,6-diamine] | 1 to 10 | 1 to 10 |
| Cc1cc(Nc2ncn(-c3ccc(F)c(F)c3)n2)cc(OCC2(C)COC2)c1 [Compound 615, 1-(3,4-difluorophenyl)-N-[3-methyl-5-[(3-methyloxetan-3-yl)methoxy]phenyl]-1,2,4-triazol-3-amine] | 10 to 100 | 10 to 100 |
| Cc1cc(N2CC(N3CCOCC3)C2)cc(Nc2ncn(-c3cc(F)cc(F)c3)n2)n1 [Compound 616, N-[1-(3,5-difluorophenyl)-1,2,4-triazol-3-yl]-6-methyl-4-(3-morpholinoazetidin-1-yl)pyridin-2-amine] | 1 to 10 | ≤ 1 |
| Cc1cc(Nc2ncn(-c3cc(F)cc(F)c3)n2)cc(N2CC(N3CCC(F)CC3)C2)c1 [Compound 617, 1-(3,5-difluorophenyl)-N-[3-[3-(4-fluoro-1-piperidyl)azetidin-1-yl]-5-methyl-phenyl]-1,2,4-triazol-3-amine] | 10 to 100 | 10 to 100 |
| Cc1cc(Nc2ncn(-c3cc(F)cc(F)c3)n2)cc(N2CC(N3C[C@@H](C)O[C@@H](C)C3)C2)c1 [Compound 618, 1-(3,5-difluorophenyl)-N-[3-[3-[(2R,6S)-2,6-dimethylmorpholin-4-yl]azetidin-1-yl]-5-methyl-phenyl]-1,2,4-triazol-3-amine] | 10 to 100 | 10 to 100 |
| COCC1CCN(c2cc(C)cc(Nc3ncn(-c4cc(F)cc(F)c4)n3)n2)CC1 [Compound 619, N-[1-(3,5-difluorophenyl)-1,2,4-triazol-3-yl]-6-[4-(methoxymethyl)-1-piperidyl]-4-methyl-pyridin-2-amine] | 1 to 10 | 1 to 10 |
| Cc1cc(Nc2ncn(-c3cc(F)cc(F)c3)n2)cc(OC2CCCN(C3COC3)C2)c1 (stereo not drawn) [Compound 620, 1-(3,5-difluorophenyl)-N-[3-methyl-5-[[1-(oxetan-3-yl)-3-piperidyl]oxy]phenyl]-1,2,4-triazol-3-amine] | 10 to 100 | 1 to 10 |
| Fc1cc(-n2cnc(Nc3cc(C(F)F)cc(N4CCN(C5COC5)CC4)n3)n2)ccc1Cl [Compound 621, N-[1-(4-chloro-3-fluoro-phenyl)-1,2,4-triazol-3-yl]-4-(difluoromethyl)-6-[4-(oxetan-3-yl)piperazin-1-yl]pyridin-2-amine] | 10 to 100 | 1 to 10 |
| Cc1cc(Nc2ncn(-c3ccc(F)cc3)n2)cc(N2CCN(C3COC3)CC2)c1 [Compound 622, 1-(4-fluorophenyl)-N-[3-methyl-5-[4-(oxetan-3-yl)piperazin-1-yl]phenyl]-1,2,4-triazol-3-amine] | 1 to 10 | 1 to 10 |
| COc1ccc(-n2cnc(Nc3cc(C)cc(N4CCN(C5COC5)CC4)c3)n2)cc1F [Compound 624, 1-(3-fluoro-4-methoxy-phenyl)-N-[3-methyl-5-[4-(oxetan-3-yl)piperazin-1-yl]phenyl]-1,2,4-triazol-3-amine] | 10 to 100 | ≤ 1 |
| COCc1cc(Nc2ncn(-c3cccc(C(F)(F)F)c3)n2)nc(N2CCN(C3COC3)CC2)c1 [Compound 625, 4-(methoxymethyl)-6-[4-(oxetan-3-yl)piperazin-1-yl]-N-[1-[3-(trifluoromethyl)phenyl]-1,2,4-triazol-3-yl]pyridin-2-amine] | 1 to 10 | 10 to 100 |
| CC(=O)N1CCC(Oc2cc(C)cc(Nc3ncn(-c4ccc(F)c(F)c4)n3)c2)CC1 [Compound 626, 1-[4-[3-[[1-(3,4-difluorophenyl)-1,2,4-triazol-3-yl]amino]-5-methyl-phenoxy]-1-piperidyl]ethanone] | 10 to 100 | ≤ 1 |
| Cc1cc(Nc2ncn(-c3ccc(F)c(F)c3)n2)cc(OCC2CCOCC2)c1 [Compound 627, 1-(3,4-difluorophenyl)-N-[3-methyl-5-(tetrahydropyran-4-ylmethoxy)phenyl]-1,2,4-triazol-3-amine] | 1 to 10 | 10 to 100 |
| Cc1cc(Nc2ncn(-c3cc(F)cc(F)c3)n2)cc(N2C[C@H]3C[C@@H]2CO3)c1 [Compound 628, 1-(3,5-difluorophenyl)-N-[3-methyl-5-[(1R,4R)-2-oxa-5-azabicyclo[2.2.1]heptan-5-yl]phenyl]-1,2,4-triazol-3-amine] | 10 to 100 | 1 to 10 |
| Cc1cc(Nc2ncn(-c3cc(F)cc(F)c3)n2)cc(C2CN(C3COC3)C(C)CO2)c1 (stereo not drawn) [Compound 629, 1-(3,5-difluorophenyl)-N-[3-methyl-5-[5-methyl-4-(oxetan-3-yl)morpholin-2-yl]phenyl]-1,2,4-triazol-3-amine] | 10 to 100 | ≤ 1 |
| Cc1cc(CN2CCN(C3COC3)CC2)c(F)c(Nc2ncn(-c3cc(F)cc(F)c3)n2)c1 [Compound 630, 1-(3,5-difluorophenyl)-N-[2-fluoro-5-methyl-3-[[4-(oxetan-3-yl)piperazin-1-yl]methyl]phenyl]-1,2,4-triazol-3-amine] | 1 to 10 | 1 to 10 |
| Cc1cc(Nc2ncn(-c3cc(F)cc(F)c3)n2)nc(C2=CCNCC2)c1 [Compound 631, N-[1-(3,5-difluorophenyl)-1,2,4-triazol-3-yl]-4-methyl-6-(1,2,3,6-tetrahydropyridin-4-yl)pyridin-2-amine] | 1 to 10 | 1 to 10 |
| Cc1cc(Nc2ncn(-c3ccc(F)c(F)c3)n2)cc(N2CCN(C3(C)COC3)CC2)c1 [Compound 633, 1-(3,4-difluorophenyl)-N-[3-methyl-5-[4-(3-methyloxetan-3-yl)piperazin-1-yl]phenyl]-1,2,4-triazol-3-amine] | 10 to 100 | 10 to 100 |
| Cc1cc(Nc2ncn(-c3cc(F)cc(F)c3)n2)cc(N2CC(N3CCCCC3)C2)c1 [Compound 634, 1-(3,5-difluorophenyl)-N-[3-methyl-5-[3-(1-piperidyl)azetidin-1-yl]phenyl]-1,2,4-triazol-3-amine] | 10 to 100 | 10 to 100 |
| Cc1cc(Nc2ncn(-c3cc(F)cc(F)c3)n2)cc(OC2CCCOC2)c1 (stereo not drawn) [Compound 635, 1-(3,5-difluorophenyl)-N-(3-methyl-5-tetrahydropyran-3-yloxy-phenyl)-1,2,4-triazol-3-amine] | 10 to 100 | 1 to 10 |
| FC(F)c1cccc(-n2cnc(Nc3cc(C(F)(F)F)cc(N4CC(N5CCOCC5)C4)n3)n2)c1 [Compound 636, N-[1-[3-(difluoromethyl)phenyl]-1,2,4-triazol-3-yl]-6-(3-morpholinoazetidin-1-yl)-4-(trifluoromethyl)pyridin-2-amine] | 1 to 10 | 1 to 10 |
| Cc1cc(Nc2ncn(-c3cc(F)cc(F)c3)n2)cc(N2CCCN(C3COC3)CC2)c1 [Compound 637, 1-(3,5-difluorophenyl)-N-[3-methyl-5-[4-(oxetan-3-yl)-1,4-diazepan-1-yl]phenyl]-1,2,4-triazol-3-amine] | 100 to 1000 | ≤ 1 |
| Cc1cc(Nc2ncn(-c3ccc(F)c(F)c3)n2)cc(OC2CCCOC2)c1 (stereo not drawn) [Compound 638, 1-(3,4-difluorophenyl)-N-(3-methyl-5-tetrahydropyran-3-yloxy-phenyl)-1,2,4-triazol-3-amine] | 10 to 100 | 10 to 100 |
| COc1cc(Nc2ncn(-c3cccc(C(F)F)c3)n2)nc(N2CCN(C3COC3)CC2)c1 [Compound 639, N-[1-[3-(difluoromethyl)phenyl]-1,2,4-triazol-3-yl]-4-methoxy-6-[4-(oxetan-3-yl)piperazin-1-yl]pyridin-2-amine] | 1 to 10 | 1 to 10 |
| Cc1cc(Nc2ncn(-c3ccc(F)c(F)c3)n2)cc(OCC2CC(F)(F)C2)c1 [Compound 640, N-[3-[(3,3-difluorocyclobutyl)methoxy]-5-methyl-phenyl]-1-(3,4-difluorophenyl)-1,2,4-triazol-3-amine] | 10 to 100 | 1 to 10 |

— patent US10766869B2, “Triazoles for the treatment of demyelinating dieases” (Vertex Pharmaceuticals Incorporated, priority 2015, dated 2020)
